Data taken from BindingDB's records for doi:10.1016/j.bmcl.2015.12.003 (University of Auckland, 2016).

Experiment: Inhibition of recombinant perforin (unknown origin) mediated lysis of human Jurkat cells pre-incubated for 30 mins with perforin followed by incubation with Jurkat cells at 37 degC for 4 hrs assessed as 51Cr release by gamma counting analysis

`O=C1OCc2cc(-c3ccc(-c4ccccc4)s3)ccc21` and `Cc1cccc(-c2ccc(-c3ccc4c(c3)COC4=O)s2)c1` cannot be ordered by IC50: greater than 20 µM for the first, greater than 20 µM for the second.

`Cc1ccccc1-c1ccc(-c2ccc3c(c2)COC3=O)s1` and `O=C1OCc2cc(-c3ccc(-c4ccccc4Cl)s3)ccc21` cannot be ordered by IC50: greater than 20 µM for the first, greater than 20 µM for the second.

`Cc1ccc(-c2ccc(-c3ccc4c(c3)COC4=O)s2)cc1` and `O=C1OCc2cc(-c3ccc(-c4ccc(Cl)cc4)s3)ccc21` cannot be ordered by IC50: greater than 20 µM for the first, greater than 20 µM for the second.

Compared with `O=C1OCc2cc(-c3ccc(-c4cccc(Cl)c4)s3)ccc21`, `Nc1cccc(-c2ccc(-c3ccc4c(c3)COC4=O)s2)c1` is lower in IC50: greater than 20 µM for the first, 14 µM for the second. The second is the more potent here.

`COc1ccccc1-c1ccc(-c2ccc3c(c2)COC3=O)s1` and `COc1cccc(-c2ccc(-c3ccc4c(c3)COC4=O)s2)c1` cannot be ordered by IC50: greater than 20 µM for the first, greater than 20 µM for the second.

`COc1ccc(-c2ccc(-c3ccc4c(c3)COC4=O)s2)cc1` and `Nc1ccc(-c2ccc(-c3ccc4c(c3)COC4=O)s2)cc1` are within 1.5-fold of each other in IC50: 9.36 µM for the first, 11.8 µM for the second.

First: O=C1OCc2cc(-c3ccc(-c4cccc(O)c4)s3)ccc21
Second: O=C1OCc2cc(-c3ccc(-c4ccc(O)cc4)s3)ccc21
The IC50 of the first is lower: 5.89 µM for the first, greater than 20 µM for the second.

First: N#Cc1cccc(-c2ccc(-c3ccc4c(c3)COC4=O)s2)c1
Second: N#Cc1ccc(-c2ccc(-c3ccc4c(c3)COC4=O)s2)cc1
The IC50 of the first is 2.9-fold higher: 20 µM for the first, 6.87 µM for the second.

Going from `NC(=O)c1cccc(-c2ccc(-c3ccc4c(c3)COC4=O)s2)c1` to `NC(=O)c1ccc(-c2ccc(-c3ccc4c(c3)COC4=O)s2)cc1`, the IC50 falls from 2.97 µM to 0.18 µM (16-fold). The second is the more potent here.

Compared with `NC(=O)c1ccc(-c2ccc(-c3ccc4c(c3)CNC4=O)s2)cc1`, `CN1Cc2cc(-c3ccc(-c4ccc(C(N)=O)cc4)s3)ccc2C1=O` is higher in IC50: 6.04 µM for the first, greater than 20 µM for the second. The first is the more potent here.

Compared with `CNC(=O)c1ccc(-c2ccc(-c3ccc4c(c3)COC4=O)s2)cc1`, `CN(C)C(=O)c1ccc(-c2ccc(-c3ccc4c(c3)COC4=O)s2)cc1` is higher in IC50: 10.7 µM for the first, greater than 20 µM for the second.

Compared with `CN1CCN(C(=O)c2ccc(-c3ccc(-c4ccc5c(c4)COC5=O)s3)cc2)CC1`, `CCOC(=O)c1ccc(-c2ccc(-c3ccc4c(c3)COC4=O)s2)cc1` is lower in IC50: greater than 20 µM for the first, 11 µM for the second.

`CN(C)CCCNC(=O)c1ccc(-c2ccc(-c3ccc4c(c3)COC4=O)s2)cc1` and `CN(C)CCNC(=O)c1ccc(-c2ccc(-c3ccc4c(c3)COC4=O)s2)cc1O` cannot be ordered by IC50: greater than 20 µM for the first, greater than 20 µM for the second.

First: CCOC(=O)c1ccc(-c2ccc(-c3ccc4c(c3)COC4=O)s2)cc1O
Second: NC(=O)c1ccc(-c2ccc(-c3ccc4c(c3)COC4=O)s2)cc1O
The IC50 of the first is higher: greater than 20 µM for the first, 0.67 µM for the second. The second is the more potent here.

Going from `Nc1cc(-c2ccc(-c3ccc4c(c3)COC4=O)s2)ccc1C(=O)O` to `NC(=O)c1ccc(-c2ccc(-c3ccc4c(c3)COC4=O)s2)cc1N`, the IC50 falls from 5.84 µM to 1.2 µM (4.9-fold). The second is the more potent here.

`O=C(NCCN1CCOCC1)c1ccc(-c2ccc(-c3ccc4c(c3)COC4=O)s2)cc1O` and `Nc1cc(-c2ccc(-c3ccc4c(c3)COC4=O)s2)ccc1C(=O)NCCN1CCOCC1` are within 1.5-fold of each other in IC50: 12.8 µM for the first, 14.7 µM for the second.

First: O=C(NCCO)c1ccc(-c2ccc(-c3ccc4c(c3)COC4=O)s2)cc1O
Second: NC(=O)CCNC(=O)c1ccc(-c2ccc(-c3ccc4c(c3)COC4=O)s2)cc1O
The IC50 of the first is 2.2-fold lower: 3.31 µM for the first, 7.12 µM for the second. The first is the more potent here.

Going from `CC(O)CNC(=O)c1ccc(-c2ccc(-c3ccc4c(c3)COC4=O)s2)cc1O` (stereo unspecified) to `NC(=O)CNC(=O)c1ccc(-c2ccc(-c3ccc4c(c3)COC4=O)s2)cc1O`, the IC50 falls from greater than 20 µM to 2.65 µM. The second is the more potent here.

First: CN(C)CCNC(=O)c1ccc(-c2ccc(-c3ccc4c(c3)COC4=O)s2)cc1N
Second: NC(=O)c1ccc(-c2ccc(-c3ccc4c(c3)COC4=O)s2)cn1
The IC50 of the first is higher: greater than 20 µM for the first, 0.92 µM for the second. The second is the more potent here.

Compared with `CSc1ccc(-c2ccc(-c3ccc4c(c3)COC4=O)s2)cc1`, `O=C1OCc2cc(-c3ccc(-c4ccc(CO)cc4)s3)ccc21` is lower in IC50: greater than 20 µM for the first, 0.9 µM for the second. The second is the more potent here.

Compared with `CS(=O)(=O)c1ccc(-c2ccc(-c3ccc4c(c3)COC4=O)s2)cc1`, `CS(=O)(=O)Nc1ccc(-c2ccc(-c3ccc4c(c3)COC4=O)s2)cc1` is lower in IC50: greater than 20 µM for the first, 1.09 µM for the second.

`NS(=O)(=O)c1cccc(-c2ccc(-c3ccc4c(c3)COC4=O)s2)c1` and `CC(C)(C)NS(=O)(=O)c1ccc(-c2ccc(-c3ccc4c(c3)COC4=O)s2)cc1` are within 1.5-fold of each other in IC50: 4.85 µM for the first, 6.09 µM for the second.

`O=C1OCc2cc(-c3ccc(-c4ccncc4)s3)ccc21` and `O=C1OCc2cc(-c3ccc(-c4ccc5c(c4)COC5=O)s3)ccc21` are within 1.5-fold of each other in IC50: 4.53 µM for the first, 6.24 µM for the second.
